“Also recorded” adds a separate entry of the source.
Columns and labels:
Type in all cases: in vivo
[1] = system: Vi/Vc zone of the medulla oblongata; test: Measurement of c-Fos positive cell count in the Vi/Vc zone of the medulla oblongata, rat scopolamine-induced dry eye model; conditions: 0.3 w/v % suspension eye drop
Description: 5 μL of eye drop was administered to the right eye using a micropipette, 4 times a day with an interval of 2 hours or longer. A vehicle eye drop was administered to the Sham group.
After a rat was allowed to bleed to death by perfusion of saline, Zamboni's Fixative was perfused to extract the medulla oblongata. After sectioning the extracted medulla oblongata, the medulla oblongata was stained by immunohistochemical staining by using an anti-c-Fos antibody (product name: Rabbit Anti-Human c-Fos Polyclonal Antibody, sc-52, Santa Cruz Biotechnology, Inc.).

[2] = system: rat scopolamine-induced dry eye model; test: Number of blinks under a low humidity environment in a rat scopolamine-induced dry eye model; conditions: for number of blinks within 5 minutes / number of blinks within 5 minutes vs vehicle at 0.5 hours: single administration; for number of blinks within 5 minutes: 0.5 hours after
Description: Compound (1) was used as a tested substance. In the same manner as Test Example 1, compound (1) was suspended in a buffer to prepare suspension eye drops with a concentration of compound (1) of 0.1 w/v %, 0.3 w/v %, and 1.0 w/v %. A compound (1)-free vehicle eye drop consisting of only a vehicle was also prepared as a control group.
A rat scopolamine-induced dry eye model was prepared by the same method as Test Example 1.
After about 2.5 hours from implanting an osmotic pump, dry air supplied from an air compressor was sent into an experiment chamber (SJ-1500N, Natsume Seisakusho) to create a low humidity environment (20% RH or lower).
5 μL of a vehicle eye drop or 0.1 w/v %, 0.3 w/v %, or 1.0 w/v % compound (1) suspension eye drop was administered once to the right eye using a micropipette, 0.5 hours before measuring the number of blinks.
After 8 days or more from starting raising the rats in a low humidity environment, the rats were taken out from a breeding cage. The animals were placed in a cage comprised of chain link fencing on all sides (behavior measurement environment cage) to facilitate measurement of the number of blinks. After acclimation for 0.5 hours under a normal environment, the behavior measurement environment cage was transferred to an experiment chamber, and the number of blinks of the right eye of rats was measured for 5 minutes under a low humidity environment. A test was conducted in four separate phases using the same animals after a drug withdrawal period of 2 days or more (crossover test).
By using the same evaluation method as Text Example 2, the sustainability of an effect of improving a subjective symptom was examined.
(§1) 1.0 w/v % compound (1) suspension eye drop was administered for an extended period using a rat scopolamine-induced dry eye model prepared by the same method as Test Example 2. The model was treated under a low humidity environment (20% RH or less) only when measuring the number of blinks.
(§2) 5 μL of 1.0 w/v % compound (1) suspension eye drop and vehicle eye drop was administered to the right eye 4 times a day by using a micropipette.
(§3) An effect of improving SPK (SPK score) was evaluated by the same method as Test Example 1 on day 8 of sample administration. The number of blinks of the right eye was measured for 5 minutes under a low humidity environment after 4 hours from the initial administration on day 7 of administration (2 weeks post-surgery) by the same method as Text Example 2.

[3] = system: rat scopolamine-induced dry eye model; test: Observation of superficial punctate keratitis (SPK) in a rat scopolamine-induced dry eye model
Description: as §1, §2, §3

For O=C(/C=C1\CCOc2cc(C(F)(F)F)ccc21)Nc1cccc2c1C[C@H](O)CC2 [compound (1), (E)-2-(7-trifluoromethylchroman-4-ylidene)-N-((7R)-7-hydroxy-5,6,7,8-tetrahydronaphthalen-1-yl)acetamide], the “c-Fos positive cell count in the Vi/Vc zone of the medulla oblongata compared to a vehicle eye drop” value ([1]; 14 days of administration) was “reduced”, the “c-Fos positive cell count” value ([1]; SCOP model, 5 μL right eye 4 times a day for 14 days, Vi/Vc zone, 22 days post-surgery) was 8.8 ± 3.8 cells/section and the “number of blinks within 5 minutes” value ([2]; 0.1 w/v % suspension eye drop, low humidity) was “reduced”. The “number of blinks within 5 minutes” value ([2]; 0.3 w/v % suspension eye drop, low humidity) was “significant effect”, the “number of blinks within 5 minutes compared to a vehicle eye drop” value ([2]; 1.0 w/v % suspension eye drop, repeated administration 4 times a day, 4 hours after initial administration on day 7, low humidity (Example 4)) was “reduced” and the “number of blinks within 5 minutes” value ([2]; 1.0 w/v % suspension eye drop, low humidity (Test Example 2)) was “significant effect”. The “number of blinks within 5 minutes vs vehicle at 0.5 hours” value (shortened to “number … vs vehicle at 0.5 hours”) ([2]; 1.0 w/v % suspension eye drop, after 0.5 hours (Example 3)) was “significantly reduced; also recorded: reduced significantly”, the “number … vs vehicle at 0.5 hours” value ([2]; 1.0 w/v % suspension eye drop, after 4 hours (Example 3)) was “significantly reduced; also recorded: reduced significantly” and the “number … vs vehicle at 0.5 hours” value ([2]; 1.0 w/v % suspension eye drop, after 8 hours (Example 3)) was “reduced”. The “SPK score compared to a vehicle eye drop” value ([3]; 0.3 w/v % suspension eye drop, after 7 days from administration (15 days post-surgery)) was “significantly reduced”, the “SPK score effect compared to a vehicle eye drop” value ([3]; 0.3 w/v % suspension eye drop, after 14 days from administration (22 days post-surgery)) was “sustained” and the “SPK score compared to a vehicle eye drop” value ([3]; 1.0 w/v % suspension eye drop, 4 times a day, 8 days of repeated administration (Example 4)) was “significantly reduced”.

Reference: patent US12533337B2, “Pharmaceutical drug containing heterocyclidene acetamide derivative” (SENJU PHARMACEUTICAL CO., LTD., priority 2019, dated 2026)
